Experimental data taken from PMC2063346, “Cyclosporin A as a multidrug-resistant modulator in patients with renal cell carcinoma treated with teniposide” (British Journal of Cancer, 1997).

Key:
[1] = in vivo
Method: (§1) British Joumal of Cancer (1997) 75(5), 715-721 ? […] Sixteen patients initially received VM26 alone (200 mg m-2 day-' i.v.). […] For this reason, new approaches are highly recommended after a first-line treatment, usually interleukin 2 based (Yagoda et al, 1995). […] P-gp deter- mines reduced intracellular drug accumulation and/or altered intracellular drug compartmentation, preventing drugs from reaching the intracellular target site (Skovsgaard, 1978, Schuurhuis et al, 1989). […] Received 2 June 1996 Revised 2 October 1996 Accepted 17 October 1996 Correspondence to: M Boiocchi, Division of Experimental Oncology 1, Centro di Riferimento Oncologico, via Pedemontana Occidentale 12, 33081 Aviano (PN), Italy Although many chemosensitizers have been used successfully in vitro in MDR cell lines, their potential therapeutic role in the clinical setting remains an intriguing issue. […] This could determine alteration in the pharmacokinetics and pharmacodynamics of the cytotoxic agents (Lum et al, 1992; Wilson et al, 1995). […] The study was approved by the local ethics committee and informed consent was obtained from all patients. Treatment protocol The patients received the first course of VM26 (Vumon; Bristol Myers, Rome, Italy) at the dosage of 200 mg m-2 day-' i.v. every 3 weeks. The second cycle (same dosage) was administered in the event of response or stable disease, if no toxicity was documented. In the event of grade 4 toxicity the dose was reduced by 25%. […] The patients were clinically evaluated according to the usual phase II trials criteria (WHO), and blood tests were performed weekly. […] To determine the VM26 level, 5-ml blood samples were drawn from peripheral vein and collected in heparinized glass tubes before treatment at 0 h (i.e. immediately before the begin- ning of i.v. infusion of VM26) and at 1,6, 12, 18, 24,24.5,25,26, 28, 32, 36, 48 and 60h. Plasma samples, which were separated after centrifugation at 1000 g for 10 min, were kept frozen at - 20'C until analysis. Urine samples were collected before, during and after VM26 treatment. Each 12-h sample from well-stirred urine was stored and kept frozen at -20?C until analysis. […] These samples were frozen at -70?C until analysis. Drug assays The method used to determine VM26 in plasma samples was that described by Evans et al (1982). Briefly, 1 ml of plasma or urine was extracted with 8 ml of chloroform containing VP16 (100 gl of a 200-,ug ml solution) as internal standard. After 20-min shaking at +4?C, samples were centrifuged at 1500 g for 20 min at +4?C. The organic phase was dried under vacuum and then redissolved with 200 gl of methanol; 50 µl of this solution as injected into an LKB-Pharmacia (Cambridge, UK) high-performance liquid chro- matography (HPLC) system equipped with an absorbance detector set at 254 nm. Separation was achieved using an isocratic solvent system of water-acetonitrile-acetic acid (64:35:1) at a flow of 1 ml min-, using a 300 x 3.9-mm long ,uBondapak phenyl column (Waters, New York, NY, USA). Peak areas were quantitated with an LKB integrator. […] To calculate the concentrations of VM26, the internal standard method was adopted. […] Pharmacokinetic analyses To define the plasma concentration-time function and to estimate pharmacokinetic parameters of VM26 for each patient, a compart- mental model was adopted. Drug infusion and non-saturable elim- ination processes were considered zero-order and first-order processes respectively. Estimates of pharmacokinetic parameters [apparent volume of distribution (V); elimination half-life (t1,2p); systemic clearance (CI); maximum drug concentration (Cmax); and area under curve (AUC)] of VM26 and the numerical validation of the model were obtained by PCNONLIN 4.0, a non-linear regression program.

[2] = system: metastatic renal cell carcinoma; assay: Treatment response, phase II (WHO criteria); assay type: in vivo, patients
Method: as §1

[3] = VM26 plasma pharmacokinetics alone and with CSA (HPLC, compartmental model); assay type: in vivo, patients
Method: as §1

[4] = Total and renal clearance of VM26 (urine collection, seven patients); assay type: in vivo
Method: British Joumal of Cancer (1997) 75(5), 715-721 ? […] Sixteen patients initially received VM26 alone (200 mg m-2 day-' i.v.). […] For this reason, new approaches are highly recommended after a first-line treatment, usually interleukin 2 based (Yagoda et al, 1995). […] P-gp deter- mines reduced intracellular drug accumulation and/or altered intracellular drug compartmentation, preventing drugs from reaching the intracellular target site (Skovsgaard, 1978, Schuurhuis et al, 1989). […] Received 2 June 1996 Revised 2 October 1996 Accepted 17 October 1996 Correspondence to: M Boiocchi, Division of Experimental Oncology 1, Centro di Riferimento Oncologico, via Pedemontana Occidentale 12, 33081 Aviano (PN), Italy Although many chemosensitizers have been used successfully in vitro in MDR cell lines, their potential therapeutic role in the clinical setting remains an intriguing issue. […] The patients were clinically evaluated according to the usual phase II trials criteria (WHO), and blood tests were performed weekly. […] The organic phase was dried under vacuum and then redissolved with 200 gl of methanol; 50 µl of this solution as injected into an LKB-Pharmacia (Cambridge, UK) high-performance liquid chro- matography (HPLC) system equipped with an absorbance detector set at 254 nm. […] Peak areas were quantitated with an LKB integrator. […]

[5] = nine patients after two courses of VM26 alone
[6] = VM26 alone, first cycle, 16 patients

COc1cc([C@@H]2c3cc4c(cc3[C@@H](O[C@@H]3O[C@@H]5CO[C@@H](c6cccs6)O[C@H]5[C@H](O)[C@H]3O)[C@H]3COC(=O)[C@H]23)OCO4)cc(OC)c1O [VM26, teniposide]
ANC/AUC ratio (nadir ANC standardized for AUC of VM26) [1]: 7.38 ± 5.51
bilirubin (in the normal range) [1]: < 1.5 mg 100 ml-1
cutaneous eruption, patients [1]: one patient
cycles with significant vomiting, mucositis or constipation [1]: < 15 % of cycles
grade 3 neutropenia, patients [1]: three
hair loss, patients [1]: all patients
nadir neutrophil count (ANC), median [1]: 1900 µL⁻¹
nadir neutrophil count (ANC), range [1]: 200 to 6000 µL⁻¹
objective responses ([2]; VM26 alone 200 mg m-2 day-1 i.v., sixteen patients): No objective responses
progressive disease, patients [2, 5]: six
stable disease, patients [2, 5]: three
Response (VM26) ([2]; patient 1, 2 cycles): SD (stable disease)
Response (VM26) ([2]; patient 2, 2 cycles): PD (progressive disease)
Response (VM26) ([2]; patient 3, 2 cycles): PD (progressive disease)
Response (VM26) ([2]; patient 4, 2 cycles): PD (progressive disease)
Response (VM26) ([2]; patient 5, 2 cycles): SD (stable disease)
Response (VM26) ([2]; patient 6, 2 cycles): SD (stable disease)
Response (VM26) ([2]; patient 7, 2 cycles): PD (progressive disease)
Response (VM26) ([2]; patient 8, 2 cycles): PD (progressive disease)
Response (VM26) ([2]; patient 9, 2 cycles): PD (progressive disease)
AUC of VM26, median (range) [3, 6]: 290.3 (168.4-791.0) mg l-1 h
Cl of VM26, median (range) [3, 6]: 0.62 (0.25-1.2) l h-1 m-2
Cmax of VM26, median (range) [3, 6]: 10.9 (7.0-22.3) mg l-1
V of VM26, median (range) [3, 6]: 5.5 (4.4-9.0) l m-2
t1/2 of VM26, median (range) [3, 6]: 6.8(2.8-14.8) h
variation in the paired AUC of VM26 ([3]; after CSA versus VM26 alone): 50%
decrease of systemic clearance of VM26 ([3]; when CSA was added, P<0.01): 1.4 fold
fraction of total clearance resulting from renal clearance ([4]; VM26 alone): < 6%
Decrease of total Cl of VM26 ([4]; VM26 plus CSA versus VM26 alone, seven patients, P<0.05): 21%
